Experimental data from patent US10208089B2, “Modulation of complement activity” (priority 2014, dated 2019).
Starred links: 1 amine or outer side, 2 acyl side, 3 side chain; linkers in the order of their positions; H or OH if unused. Positions of bridges follow the written chain, without caps; N, C: chain ends. Non-standard residues stand in square brackets, D forms with d. Residues, ends and D or L forms follow the SMILES beside them. Trp(7-aza) = N[C@@H](Cc1c[nH]c2ncccc12)C(=O)O; mXylylene = c1cc(C[*:1])cc(C[*:2])c1; Phg = N[C@H](C(=O)O)c1ccccc1; Tle = CC(C)(C)[C@H](N)C(=O)O; NMeS = CN[C@@H](CO)C(=O)O; hCys = N[C@@H](CCS)C(=O)O; NMeA = CN[C@@H](C)C(=O)O; Nva = CCC[C@H](N)C(=O)O; Sar = CNCC(=O)O

These molecules were tested against C5 (Homo sapiens, UniProt P01031) (assay: Human hemolysis assay (RBC lysis assay using complete human sera)). Conditions: 7-azatryptophan variant polypeptides of R3008; inhibition of red blood cell lysis.
C5, sequence (P01031 19-1676): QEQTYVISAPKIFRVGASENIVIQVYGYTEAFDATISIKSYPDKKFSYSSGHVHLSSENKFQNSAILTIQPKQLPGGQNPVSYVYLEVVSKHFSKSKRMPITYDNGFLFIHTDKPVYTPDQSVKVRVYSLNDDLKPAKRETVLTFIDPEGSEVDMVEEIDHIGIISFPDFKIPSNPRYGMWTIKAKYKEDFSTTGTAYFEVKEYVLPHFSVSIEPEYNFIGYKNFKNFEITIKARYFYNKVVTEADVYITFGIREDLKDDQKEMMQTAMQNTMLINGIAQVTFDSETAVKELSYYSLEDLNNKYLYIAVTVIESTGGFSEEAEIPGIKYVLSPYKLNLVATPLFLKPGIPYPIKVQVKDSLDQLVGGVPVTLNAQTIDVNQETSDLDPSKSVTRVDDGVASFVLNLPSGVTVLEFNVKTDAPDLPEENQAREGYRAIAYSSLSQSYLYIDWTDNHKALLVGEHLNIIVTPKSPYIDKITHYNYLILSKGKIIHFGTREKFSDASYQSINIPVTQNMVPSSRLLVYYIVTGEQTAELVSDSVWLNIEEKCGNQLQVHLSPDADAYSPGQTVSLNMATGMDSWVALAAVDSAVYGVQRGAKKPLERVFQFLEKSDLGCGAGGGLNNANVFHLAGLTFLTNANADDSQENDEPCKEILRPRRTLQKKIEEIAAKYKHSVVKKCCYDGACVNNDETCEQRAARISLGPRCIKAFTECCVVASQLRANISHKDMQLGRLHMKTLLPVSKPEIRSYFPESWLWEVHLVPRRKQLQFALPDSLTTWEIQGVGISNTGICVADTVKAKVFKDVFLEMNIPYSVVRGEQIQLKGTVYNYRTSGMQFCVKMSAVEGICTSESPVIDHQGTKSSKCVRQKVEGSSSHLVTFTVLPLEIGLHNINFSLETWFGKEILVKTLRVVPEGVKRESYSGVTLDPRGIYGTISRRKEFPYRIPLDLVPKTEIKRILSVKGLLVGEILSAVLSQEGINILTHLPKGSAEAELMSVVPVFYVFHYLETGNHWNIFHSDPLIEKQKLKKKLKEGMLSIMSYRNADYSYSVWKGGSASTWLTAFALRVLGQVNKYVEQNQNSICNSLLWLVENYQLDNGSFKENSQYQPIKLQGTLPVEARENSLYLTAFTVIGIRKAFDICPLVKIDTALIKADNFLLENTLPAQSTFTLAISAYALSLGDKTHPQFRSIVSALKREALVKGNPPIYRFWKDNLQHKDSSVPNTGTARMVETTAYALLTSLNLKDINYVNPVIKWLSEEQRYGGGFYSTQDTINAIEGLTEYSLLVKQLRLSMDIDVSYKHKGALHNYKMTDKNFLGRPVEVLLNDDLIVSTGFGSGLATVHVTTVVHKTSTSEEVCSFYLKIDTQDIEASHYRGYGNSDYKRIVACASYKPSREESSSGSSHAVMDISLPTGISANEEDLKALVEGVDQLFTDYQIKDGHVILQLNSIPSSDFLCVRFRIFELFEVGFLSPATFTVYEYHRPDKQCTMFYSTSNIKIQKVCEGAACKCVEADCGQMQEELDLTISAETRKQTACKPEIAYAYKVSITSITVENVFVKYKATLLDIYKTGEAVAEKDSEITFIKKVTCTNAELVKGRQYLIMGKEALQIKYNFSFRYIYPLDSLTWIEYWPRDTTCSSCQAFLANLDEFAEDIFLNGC
Type: cell-based
Set-up: with complete human sera (Complement Technology, Tyler Tex.) and polypeptides; tissue Complement Technology, Tyler Tex; host or cells: complete human serum

| SMILES | IC50 [µM] |
| --- | --- |
| CCC[C@H](NC(=O)[C@@H]1CSCc2cccc(c2)CSC[C@H](NC(=O)[C@H](CCC)NC(C)=O)C(=O)N[C@@H](c2ccccc2)C(=O)N[C@@H]([C@@H](C)O)C(=O)N[C@@H](C)C(=O)N[C@@H](CCC(=O)O)C(=O)N[C@@H](Cc2ccc(O)cc2)C(=O)N(C)[C@@H](CO)C(=O)N[C@@H](Cc2c[nH]cn2)C(=O)N1)C(N)=O [Compound R3034, [mXylyl(2,10)]Ac-Nvl-C-Phg-T-A-E-Y-(N-Me)S-H-C-Nvl-NH2] (Ac-[Nva]C[Phg]TAEY[NMeS]HC[Nva]-NH2; linker 2-10 via mXylylene) | > 50 |

Same assay, conditions: C-terminally truncated polypeptide variants of R3021; inhibition of red blood cell lysis

| SMILES | IC50 [µM] |
| --- | --- |
| CSCC[C@H](N)C(=O)N[C@H]1CSCc2cccc(c2)CSC[C@@H](C(=O)N[C@@H](CC(=O)O)C(=O)N[C@H](C(=O)N[C@@H](Cc2ccc(O)cc2)C(=O)N[C@@H](Cc2c[nH]c3ccccc23)C(N)=O)C(C)C)NC(=O)[C@H](Cc2ccccc2)NC(=O)[C@H](CCCNC(=N)N)NC(=O)[C@H](CCC(=O)O)NC(=O)[C@H](C(C)C)NC1=O [Compound R3044, [mXylyl(2,7)]M-C-V-E-R-F-C-D-V-Y-W-NH2] (H-MCVERFCDVYW-NH2; linker 2-7 via mXylylene) | > 50 |
| CSCC[C@H](N)C(=O)N[C@H]1CSCc2cccc(c2)CSC[C@@H](C(=O)N[C@@H](CC(=O)O)C(=O)N[C@H](C(N)=O)C(C)C)NC(=O)[C@H](Cc2ccccc2)NC(=O)[C@H](CCCNC(=N)N)NC(=O)[C@H](CCC(=O)O)NC(=O)[C@H](C(C)C)NC1=O [Compound R3046, [mXylyl(2,7)]M-C-V-E-R-F-C-D-V-NH2] (H-MCVERFCDV-NH2; linker 2-7 via mXylylene) | > 100 |

Same assay, conditions: inhibition of lysis of antibody-sensitized sheep erythrocytes, complete human sera

| SMILES | IC50 [µM] |
| --- | --- |
| CCC[C@H](NC(=O)[C@@H]1CSCc2cccc(c2)CSC[C@H](NC(=O)[C@H](CCC)NC(C)=O)C(=O)N[C@@H](c2ccccc2)C(=O)N[C@@H]([C@@H](C)O)C(=O)N[C@@H](Cc2c[nH]c3ncccc23)C(=O)N[C@@H](CCC(=O)O)C(=O)N[C@@H](Cc2ccc(O)cc2)C(=O)N2CCC[C@H]2C(=O)N[C@@H](Cc2c[nH]cn2)C(=O)N1)C(N)=O [Compound R3102, [mXylyl(2,10)]Ac-Nvl-C-Phg-T-azaTrp-E-Y-P-H-C-Nvl-NH2] (Ac-[Nva]C[Phg]T[Trp(7-aza)]EYPHC[Nva]-NH2; linker 2-10 via mXylylene) | 0.978 |
| CSCC[C@H](N)C(=O)N[C@H]1CSCc2cccc(c2)CSC[C@@H](C(=O)N[C@@H](CC(=O)O)C(=O)N[C@H](C(=O)N[C@@H](Cc2ccc(O)cc2)C(=O)N[C@@H](Cc2c[nH]c3ccccc23)C(N)=O)C(C)C)NC(=O)[C@H](Cc2ccccc2)NC(=O)[C@H](CCCNC(=N)N)NC(=O)[C@H](CCC(=O)O)NC(=O)[C@H](C(C)C)NC1=O [Compound R3044, [mXylyl(2,7)]M-C-V-E-R-F-C-D-V-Y-W-NH2] (H-MCVERFCDVYW-NH2; linker 2-7 via mXylylene) | > 50 |
| CCC[C@H](N)C(=O)N[C@H]1CSCc2cccc(c2)CSC[C@@H](C(=O)N[C@H](C(=O)N(C)[C@@H](C)C(N)=O)c2ccccc2)NC(=O)[C@H](CC(C)C)NC(=O)CN(C)C(=O)[C@H](CC(N)=O)NC(=O)[C@H](c2ccccc2)NC(=O)[C@H](C(C)(C)C)NC(=O)[C@H](Cc2ccc(O)cc2)NC1=O [Compound R3052, [mXylyl(2,9)]Nvl-C-Y-Tbg-Phg-N-(N-Me)G-L-C-Phg-(N-Me)A-NH2] (H-[Nva]CY[Tle][Phg]N[Sar]LC[Phg][NMeA]-NH2; linker 2-9 via mXylylene) | > 100 |
| CCC[C@H](NC(=O)[C@@H]1CSCc2cccc(c2)CSC[C@H](NC(=O)[C@H](CCC)NC(C)=O)C(=O)N[C@@H](c2ccccc2)C(=O)N[C@@H]([C@@H](C)O)C(=O)N[C@@H](Cc2c[nH]c3ncccc23)C(=O)N[C@@H](CCC(=O)O)C(=O)N[C@@H](Cc2ccc(O)cc2)C(=O)N(C)[C@@H](CO)C(=O)N[C@@H](Cc2c[nH]cn2)C(=O)NCC(=O)N1)C(N)=O [Compound R3101, [mXylyl(2,10)]Ac-Nvl-C-Phg-T-azaTrp-E-Y-(N-Me)S-A-H-G-Nvl-NH2] (Ac-[Nva]C[Phg]T[Trp(7-aza)]EY[NMeS]HGC[Nva]-NH2; linker 2-11 via mXylylene) | > 100 |
| CCC[C@H](NC(=O)[C@@H]1CCSCc2cccc(c2)CSC[C@H](NC(=O)[C@H](CCC)NC(C)=O)C(=O)N[C@@H](c2ccccc2)C(=O)N[C@@H]([C@@H](C)O)C(=O)N[C@@H](Cc2c[nH]c3ncccc23)C(=O)N[C@@H](CCC(=O)O)C(=O)N[C@@H](Cc2ccc(O)cc2)C(=O)N(C)[C@@H](CO)C(=O)N[C@@H](Cc2c[nH]cn2)C(=O)N1)C(N)=O [Compound R3105, [mXylyl(2,10)]Ac-Nvl-C-Phg-T-azaTrp-E-Y-(N-Me)S-H-homoC-Nvl-NH2] (Ac-[Nva]C[Phg]T[Trp(7-aza)]EY[NMeS]H[hCys][Nva]-NH2; linker 2-10 via mXylylene) | > 5 |
| CCCCCCCC(=O)NCCCC[C@H](NC(=O)[C@@H](NC(=O)[C@@H]1CCCN1C(=O)[C@H](Cc1ccc(O)cc1)NC(=O)[C@H](CCC(=O)O)NC(=O)[C@H](Cc1c[nH]c2ncccc12)NC(=O)[C@H](Cc1ccc(O)cc1)NC(=O)[C@@H](NC(=O)[C@H](CC(=O)O)NC(=O)[C@@H]1CSCc2cccc(c2)CSC[C@H](NC(C)=O)C(=O)N[C@@H](C)C(=O)N[C@@H](CCC(=O)O)C(=O)N[C@@H](CCCNC(=N)N)C(=O)N[C@@H](Cc2ccccc2)C(=O)N1)C(C)(C)C)c1ccccc1)C(N)=O [Compound R3166, [mXylyl(1,6)]Ac-C-A-E-R-F-C-D-Tbg-Y-azaTrp-E-Y-P-Phg-(Lys-C8)-NH2] | 0.0175 |
| CSCC[C@H](N)C(=O)N[C@H]1CSCc2cccc(c2)CSC[C@@H](C(=O)N[C@@H](CC(=O)O)C(=O)N[C@H](C(N)=O)C(C)C)NC(=O)[C@H](Cc2ccccc2)NC(=O)[C@H](CCCNC(=N)N)NC(=O)[C@H](CCC(=O)O)NC(=O)[C@H](C(C)C)NC1=O [Compound R3046, [mXylyl(2,7)]M-C-V-E-R-F-C-D-V-NH2] (H-MCVERFCDV-NH2; linker 2-7 via mXylylene) | > 100 |
| CCC[C@H](NC(=O)[C@@H]1CSCc2cccc(c2)CSC[C@H](NC(=O)[C@H](CCC)NC(C)=O)C(=O)N[C@@H](c2ccccc2)C(=O)N[C@@H]([C@@H](C)O)C(=O)N[C@@H](C)C(=O)N[C@@H](CCC(=O)O)C(=O)N[C@@H](Cc2ccc(O)cc2)C(=O)N(C)[C@@H](CO)C(=O)N[C@@H](Cc2c[nH]cn2)C(=O)N1)C(N)=O [Compound R3034, [mXylyl(2,10)]Ac-Nvl-C-Phg-T-A-E-Y-(N-Me)S-H-C-Nvl-NH2] (Ac-[Nva]C[Phg]TAEY[NMeS]HC[Nva]-NH2; linker 2-10 via mXylylene) | > 50 |
